Measured values published in patent US6423688B1, “Dipeptide and related compounds which inhibit leukocyte adhesion mediated by VLA-4” (Athena Neurosciences, Inc., priority 1997, dated 2002).
Peptide text beside a SMILES is read from it. * marks the point of attachment. Tos = Cc1ccc(S(=O)(=O)*)cc1

| melting point [°C] | Compound |
| --- | --- |
| 45 to 55 | Cc1ccc(S(=O)(=O)N2CCC[C@H]2C(=O)N[C@@H](CCC(N)=O)C(=O)O)cc1 [Example 5, N-(Toluene-4-sulfonyl)-L-prolyl-L-glutamine] (Tos-Pro-Gln-OH) |
| 178 to 180 | Cc1ccc(S(=O)(=O)N2CCC[C@H]2C(=O)N[C@@H](CC(N)=O)C(=O)O)cc1 [Example 2, N-(Toluene-4-sulfonyl)-L-prolyl-L-asparagine] (Tos-Pro-Asn-OH) |
